Results taken from ChEMBL document CHEMBL2434832, “Structure-based identification of novel PPAR gamma ligands” (Bioorg Med Chem Lett, 2013).

Columns and labels:
[1] = Solubility of the compound in DMSO; format: physicochemical
[2] = biological target: T1, Peroxisome proliferator-activated receptor gamma (Homo sapiens) (UniProt P37231); test: Binding affinity to human PPARgamma LBD expressed in Escherichia coli BL21 DE3 assessed as melting temperature at 33 uM after 2 hrs using SYPRO orange dye
T1 sequence (whole entry): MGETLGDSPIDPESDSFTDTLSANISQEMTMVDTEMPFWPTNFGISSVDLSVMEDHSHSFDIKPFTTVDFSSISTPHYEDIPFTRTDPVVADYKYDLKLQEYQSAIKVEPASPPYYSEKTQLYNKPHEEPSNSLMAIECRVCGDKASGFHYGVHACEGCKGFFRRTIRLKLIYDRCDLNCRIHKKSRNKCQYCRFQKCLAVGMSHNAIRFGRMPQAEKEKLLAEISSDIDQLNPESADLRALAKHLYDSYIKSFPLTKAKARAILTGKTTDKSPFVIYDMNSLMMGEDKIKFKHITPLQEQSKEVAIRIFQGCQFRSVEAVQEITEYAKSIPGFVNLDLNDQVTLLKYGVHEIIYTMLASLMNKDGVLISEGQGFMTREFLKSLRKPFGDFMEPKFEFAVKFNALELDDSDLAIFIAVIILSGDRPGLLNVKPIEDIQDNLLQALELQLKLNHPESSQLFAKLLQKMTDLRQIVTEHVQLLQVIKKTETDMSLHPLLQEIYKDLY

[3] = biological target: T2, Peroxisome proliferator-activated receptor gamma (Homo sapiens, UniProt P37231); test: Displacement of fluormone from human PPARgamma LBD expressed in Escherichia coli BL21 DE3 by fluorescence polarization assay
T2 sequence (P37231 whole entry): T1 sequence (whole entry)

| Structure (SMILES) | solubility [1] | Tm [2] [°C] | IC50 [3] [nM] |
| --- | --- | --- | --- |
| O=C(O)Cn1c(SCCOc2ccc3ccccc3c2)nc2ccccc21 | soluble | 46 | 2220 |
| Cc1ccccc1Nc1nc(N)nc(CSc2nc3ccccc3c(=O)[nH]2)n1 | soluble | 46 | – |
| O=C(O)c1ccc(COc2ccccc2C=C2C(=O)c3ccccc3C2=O)cc1 | soluble | 53 | 1140 |
| CN1CCN(S(=O)(=O)c2ccc(SCC(=O)O)nc2)CC1 | Insoluble | – | – |
| O=C(CN1C(=O)c2ccccc2C1=O)NCc1ccc(C(=O)O)cc1 | soluble | 46 | – |
| COc1cccc(/C=C2\SC(=S)N(CCCC(=O)N3CCC(C(=O)O)CC3)C2=O)c1 | soluble | 49 | – |
| O=C(Nc1ccc(C(=O)O)cc1)/C(=C\c1ccc2c(c1)OCO2)NC(=O)c1ccc(Br)o1 | soluble | 46 | – |
| Cc1ccc(Cn2c(=N)n(CC(=O)O)c3ccccc32)cc1 | soluble | 46 | – |
| CCOc1cc(/C=C2/SC(Nc3cccc(C(=O)O)c3)=NC2=O)ccc1OC | Insoluble | – | – |
| Cc1ccc(S(=O)(=O)Cc2noc(CCC(=O)O)n2)cc1 | soluble | 46 | – |
| CSc1ccccc1-n1nnnc1SCC(=O)O | soluble | 46 | – |
| Cc1c(/C=C2\SC(Nc3cccc(C(=O)O)c3)=NC2=O)c2ccccc2n1C | soluble | 46 | – |
| CN(CCOc1ccc(CC2SC(=O)NC2=O)cc1)c1ccccn1 (configuration not stated) | – | 49 | – |
| O=C(O)c1ccc(-n2nnnc2SCc2ccccc2Br)cc1 | soluble | 46 | 5130 |
| O=C(O)Cn1ccc2cc(OCc3ccccc3)ccc21 | soluble | 46 | – |
| C[C@@H](Oc1ccc(/C=C2/C(=O)N=C(O)N(c3cccc(Br)c3)C2=O)cc1)C(=O)O | soluble | 46 | – |
